Results: US20250115598A1 (Anaxis Pharma Pty Ltd, priority 2021, published 2025)
pIC50, pKd: −log10 of the molar value.

Tests used:
endogenous MLKL in U937 = endogenous MLKL in U937 (Homo sapiens (Human), UniProt Q8NB16); experiment: Degradation assay: endogenous MLKL in U937 (western blot); conditions: U937, 24 h incubation, read-out: Degradation of endogenous MLKL in U937 (DC50 cell-based assay)
Experimental: Degradation Assay: Screening Compounds Procedure to Evaluate the Activity of Compounds in Degrading Endogenous MLKL in Human and Mouse Cell
The mouse dermal fibroblast (MDF) cell line was seeded the day before the experiment in a 24-well plate at a cell density of […] per well in a volume of 0.5 mL per well and left to attach overnight. The human monocyte cell line (U937) was seeded on the day of the experiment in a 24-well plate at a cell density of […] per well in a volume of 0.5 mL per well.
The compound was diluted in DMSO with a starting concentration of 10 mM and titrated stepwise with a dilution of 1:5. 0.5 μL of the compound dilution was added to the appropriate well to achieve a final concentration of 10; 2; 0.4; 0.08 and 0.016 μM. A DMSO only well was included as control.
The cells were incubated for 24 h in the presence of the compound at 37° C. and 10% CO2.
After the 24 h incubation period, the medium was removed and cells washed with 0.5 mL PBS. The cells were then lysed directly in 60 μL of 1×SDS gel loading buffer.
The cell lysate was heat-denatured at […] for 10 min. 10 μL of lysate per well were run on 18-well 4-15% Criterion TGX stain free gels (BIO-RAD). The proteins were then transferred onto nitrocellulose membrane with a wet transfer protocol in the Criterion Blotter (BIO-RAD).
Membranes were blocked with 5% skim milk in TBST. Primary antibody against MLKL (clone 3H1, MABC604 Merck) was used at 1:2000 dilution in TBST with 1% BSA and left shaking over night at 4° C. After washes with TBST, the membranes were incubated with goat anti-rat IgG HRP-conjugated antibody (Southern Biotech) in 1% skim milk TBST at 1:10000 dilution for 1 h at room temperature. After TBST washes the bands were imaged on the ChemiDoc MP Imaging System (BIO-RAD) with Immobilion Western Chemiluminescent HRP Substrate Forte (Millipore). The loading control GAPDH was probed for with rabbit anti-GAPDH (CST 14C10) at 1:2000 dilution in 1% BSA TBST over night at 4° C. TBST washes were followed by incubation with goat anti-rabbit IgG HRP-conjugated antibody (Southern Biotech) in 1% skim milk TBST at 1:10000 dilution for 1 h at room temperature followed by TBST washes. The signal was detected as described above.
The band intensity was measured in the ImageLab Software (BIO-RAD) and the MLKL values adjusted for loading with GAPDH. The percentage of degradation was calculated by normalizing the compound treated values to the DMSO only control.

human MLKL (full length) = human MLKL (full length) (Homo sapiens (Human), UniProt Q8NB16); experiment: KINOMEscan binding assay, human MLKL (full length); conditions: hMLKL, Table 25; read-out: MLKL (KD)
Summary of the method: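 Binding constants were derived by fitting qPCR-quantified bead-retained kinase against compound concentration to the Hill equation, slope set at −1. Compound series were 3-fold over 11 points with 1% DMSO; most top concentrations were 30,000 nM. Kinases were T7-phage-tagged or HEK-293-produced with DNA tags.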

[1] = system: Immortalised Mouse Dermal Fibroblasts (MDFs); experiment: Cellular assay: inhibition of TSI induced necroptosis, CellTitre-Glo viability; conditions: Mus musculus, Fibroblast; MDF, 3 hours TSI cocktail, Table 27; read-out: Inhibition of TSI-induced necroptosis (IC50 cell-based assay) in MDF
Summary of the method: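 Immortalised mouse dermal fibroblasts (2200 cells/well) pretreated 30 min with compound, 10-point 1:3 series from 36 μM, 0.3% DMSO. Then 3 h at 37° C. with TNF (100 ng/ml), Smac mimetic (500 nM) and IDN-6556 (10 μM). CellTiter-Glo luminescence normalised to DMSO (100%) and DMSO+TSI (0%); IC50 from 4-parameter logistic fit.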

endogenous MLKL in MDF = endogenous MLKL in MDF (Mus musculus (Mouse), UniProt Q9D2Y4); experiment: Degradation assay: endogenous MLKL in MDF (western blot); conditions: MDF cells, 24 h incubation with compound, MLKL adjusted for loading with GAPDH, normalized to DMSO only control, read-out: Degradation of endogenous MLKL in MDF (DC50 cell-based assay)
Summary of the method: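 MDF (seeded the day before) or U937 cells were treated 24 h at 37 °C, 10% CO2 with compound at 10, 2, 0.4, 0.08 and 0.016 μM final. Endogenous MLKL was quantified by western blot (anti-MLKL 3H1), normalized to GAPDH. Percent degradation was taken relative to DMSO control.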

Sequence of human MLKL (full length) (Q8NB16 whole entry): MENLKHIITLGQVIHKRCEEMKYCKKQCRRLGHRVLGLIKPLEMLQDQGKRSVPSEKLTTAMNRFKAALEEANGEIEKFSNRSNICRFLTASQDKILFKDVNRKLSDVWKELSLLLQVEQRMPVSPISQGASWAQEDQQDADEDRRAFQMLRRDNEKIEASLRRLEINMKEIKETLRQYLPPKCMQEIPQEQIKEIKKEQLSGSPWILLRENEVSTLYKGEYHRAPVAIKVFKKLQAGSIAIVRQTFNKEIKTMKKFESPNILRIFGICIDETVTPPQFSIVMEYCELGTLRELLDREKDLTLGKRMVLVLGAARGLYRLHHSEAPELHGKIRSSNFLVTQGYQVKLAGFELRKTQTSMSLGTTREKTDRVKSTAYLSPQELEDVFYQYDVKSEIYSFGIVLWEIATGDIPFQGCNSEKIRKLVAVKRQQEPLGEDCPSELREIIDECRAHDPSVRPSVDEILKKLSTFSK
Sequence of endogenous MLKL in U937 (Q8NB16 whole entry): as above
Sequence of endogenous MLKL in MDF (Q9D2Y4 whole entry): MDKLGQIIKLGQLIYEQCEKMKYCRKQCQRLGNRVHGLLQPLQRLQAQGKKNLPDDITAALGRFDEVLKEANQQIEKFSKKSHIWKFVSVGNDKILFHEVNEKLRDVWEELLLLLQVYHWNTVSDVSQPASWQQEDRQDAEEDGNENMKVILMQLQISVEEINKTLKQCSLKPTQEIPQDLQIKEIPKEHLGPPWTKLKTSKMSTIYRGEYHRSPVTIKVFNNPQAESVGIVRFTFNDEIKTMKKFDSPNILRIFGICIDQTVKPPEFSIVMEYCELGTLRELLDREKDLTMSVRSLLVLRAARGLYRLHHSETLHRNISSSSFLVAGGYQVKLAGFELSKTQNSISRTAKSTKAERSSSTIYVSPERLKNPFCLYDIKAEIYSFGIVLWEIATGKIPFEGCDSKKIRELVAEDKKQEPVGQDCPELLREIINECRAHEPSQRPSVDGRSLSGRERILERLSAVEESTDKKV

Cc1ncsc1-c1ccc(CNC(=O)[C@@H]2C[C@@H](O)CN2C(=O)[C@@H](NC(=O)CCOCCCn2cc(-c3cnc(N)c4c(-c5ccc(NS(=O)(=O)C(F)F)c(O[C@@H](C)c6ccc(F)cc6)c5)nn(C)c34)cn2)C(C)(C)C)cc1 [Compound 1040, (2S,4R)-1-[(2S)-2-{3-[3-(4-{4-amino-3-[4-(difluoromethanesulfonamido)-3-[(1S)-1-(4-fluorophenyl)ethoxy]phenyl]-1-methyl-1H-pyrazolo[4,3-c]pyridin-7-yl}-1H-pyrazol-1-yl)propoxy]propanamido}-3,3-dimethylbutanoyl]-4-hydroxy-N-{[4-(4-methyl-1,3-thiazol-5-yl)phenyl]methyl}pyrrolidine-2-carboxamide]
DC50 (endogenous MLKL in U937): 1000 to 10000 nM | pKd (human MLKL (full length)): > 8.00

C[C@H](Oc1cc(-c2nn(C)c3c(C#CCCCCCCNC(=O)COc4cccc5c4C(=O)N(C4CCC(=O)NC4=O)C5=O)cnc(N)c23)ccc1NS(=O)(=O)C(F)F)c1ccc(F)cc1 (stereo partly drawn) [Compound 1097, N-(8-{4-amino-3-[4-(difluoromethanesulfonamido)-3-[(1S)-1-(4-fluorophenyl)ethoxy]phenyl]-1-methyl-1H-pyrazolo[4,3-c]pyridin-7-yl}oct-7-yn-1-yl)-2-{[2-(2,6-dioxopiperidin-3-yl)-1,3-dioxo-2,3-dihydro-1H-isoindol-4-yl]oxy}acetamide]
DC50 (endogenous MLKL in U937): < 1000 nM | pKd (human MLKL (full length)): > 8.00

Cc1ncsc1-c1ccc(CNC(=O)[C@@H]2C[C@@H](O)CN2C(=O)[C@@H](NC(=O)CCCCCCC#Cc2cnc(N)c3c(-c4ccc(NS(=O)(=O)C(F)F)c(F)c4)nn(C)c23)C(C)(C)C)cc1 [Compound 1052, (2S,4R)-1-[(2S)-2-(9-{4-amino-3-[4-(difluoromethanesulfonamido)-3-fluorophenyl]-1-methyl-1H-pyrazolo[4,3-c]pyridin-7-yl}non-8-ynamido)-3,3-dimethylbutanoyl]-4-hydroxy-N-{[4-(4-methyl-1,3-thiazol-5-yl)phenyl]methyl}pyrrolidine-2-carboxamide]
DC50 (endogenous MLKL in U937): 1000 to 10000 nM | pKd (human MLKL (full length)): 6.00 to 8.00

Cc1ncsc1-c1ccc(CNC(=O)[C@@H]2C[C@@H](O)CN2C(=O)[C@@H](NC(=O)COCCOCC#Cc2cnc(N)c3c(-c4ccc(NS(=O)(=O)C(F)F)c(O[C@@H](C)c5ccc(F)cc5)c4)nn(C)c23)C(C)(C)C)cc1 [Compound 1075, (2S,4R)-1-[(2S)-2-(2-{2-[(3-{4-amino-3-[4-(difluoromethanesulfonamido)-3-[(1S)-1-(4-fluorophenyl)ethoxy]phenyl]-1-methyl-1H-pyrazolo[4,3-c]pyridin-7-yl}prop-2-yn-1-yl)oxy]ethoxy}acetamido)-3,3-dimethylbutanoyl]-4-hydroxy-N-{[4-(4-methyl-1,3-thiazol-5-yl)phenyl]methyl}pyrrolidine-2-carboxamide]
DC50 (endogenous MLKL in U937): < 1000 nM | pKd (human MLKL (full length)): > 8.00

C[C@H](Oc1cc(-c2nn(C)c3c(-c4cnn(C5CCN(C(=O)[C@H]6C[C@H](N(C)c7ccc8c(c7)C(=O)N(C7CCC(=O)NC7=O)C8=O)C6)CC5)c4)cnc(N)c23)ccc1NS(=O)(=O)C(F)F)c1ccc(F)cc1 (stereo partly drawn) [Compound 1106, N-{4-[4-amino-1-methyl-7-(1-{1-[(trans)-3-{[2-(2,6-dioxopiperidin-3-yl)-1,3-dioxo-2,3-dihydro-1H-isoindol-5-yl](methyl)amino}cyclobutanecarbonyl]piperidin-4-yl}-1H-pyrazol-4-yl)-1H-pyrazolo[4,3-c]pyridin-3-yl]-2-[(1S)-1-(4-fluorophenyl)ethoxy]phenyl}-1,1-difluoromethanesulfonamide]
pIC50 [1]: > 6.00 | pKd (human MLKL (full length)): > 8.00 | DC50 (endogenous MLKL in MDF): < 1000 nM

C[C@H](Oc1cc(-c2nn(C)c3c(-c4cnn(C5CCN(C(=O)[C@H]6C[C@@H](Nc7cccc8c7C(=O)N(C7CCC(=O)NC7=O)C8=O)C6)CC5)c4)cnc(N)c23)ccc1NS(=O)(=O)C(F)F)c1ccc(F)cc1 (stereo partly drawn) [Compound 1055, N-{4-[4-amino-1-methyl-7-(1-{1-[(cis)-3-{[2-(2,6-dioxopiperidin-3-yl)-1,3-dioxo-2,3-dihydro-1H-isoindol-4-yl]amino}cyclobutane-carbonyl]piperidin-4-yl}-1H-pyrazol-4-yl)-1H-pyrazolo[4,3-c]pyridin-3-yl]-2-[(1S)-1-(4-fluorophenyl)ethoxy]phenyl}-1,1-difluoromethanesulfonamide]
pIC50 [1]: > 6.00 | pKd (human MLKL (full length)): 6.00 to 8.00 | DC50 (endogenous MLKL in MDF): < 1000 nM

(2S,4R)-1-[(2S)-2-(9-{4-amino-3-[4-(difluoromethanesulfonamido)-3-fluorophenyl]-1-methyl-1H-pyrazolo[4,3-c]pyridin-7-yl}non-8-ynamido)-3,3-dimethylbutanoyl]-4-hydroxy-N-{[4-(4-methyl-1,3-thiazol-5-yl)phenyl]methyl}pyrrolidine-2-carboxamide [Compound 1046]
DC50 (endogenous MLKL in U937): < 1000 nM

C[C@H](Oc1cc(-c2nn(C)c3c(-c4cnn(C5CCN(C(=O)[C@]6(F)C[C@@H](Nc7cccc8c7C(=O)N(C7CCC(=O)NC7=O)C8=O)C6)CC5)c4)cnc(N)c23)ccc1NS(=O)(=O)C(F)F)c1ccc(F)cc1 (stereo partly drawn) [Compound 1111, N-{4-[4-amino-1-methyl-7-(1-{1-[(cis)-3-{[2-(2,6-dioxopiperidin-3-yl)-1,3-dioxo-2,3-dihydro-1H-isoindol-4-yl]amino}-1-fluorocyclobutane-carbonyl]piperidin-4-yl}-1H-pyrazol-4-yl)-1H-pyrazolo[4,3-c]pyridin-3-yl]-2-[(1S)-1-(4-fluorophenyl)ethoxy]phenyl}-1,1-difluoro-methanesulfonamide]
pIC50 [1]: > 6.00 | pKd (human MLKL (full length)): 6.00 to 8.00 | DC50 (endogenous MLKL in MDF): < 1000 nM

C[C@H](Oc1cc(-c2nn(C)c3c(-c4cnn(C5CCN(C(=O)[C@]6(F)C[C@H](Nc7cccc8c7C(=O)N(C7CCC(=O)NC7=O)C8=O)C6)CC5)c4)cnc(N)c23)ccc1NS(=O)(=O)C(F)F)c1ccc(F)cc1 (stereo partly drawn) [Compound 1110, N-{4-[4-amino-1-methyl-7-(1-{1-[(trans)-3-{[2-(2,6-dioxopiperidin-3-yl)-1,3-dioxo-2,3-dihydro-1H-isoindol-4-yl]amino}-1-fluoro-cyclobutanecarbonyl]piperidin-4-yl}-1H-pyrazol-4-yl)-1H-pyrazolo[4,3-c]pyridin-3-yl]-2-[(1S)-1-(4-fluorophenyl)ethoxy]phenyl}-1,1-difluoromethanesulfonamide]
pIC50 [1]: > 6.00 | pKd (human MLKL (full length)): > 8.00 | DC50 (endogenous MLKL in MDF): < 1000 nM

C[C@H](Oc1cc(-c2nn(C)c3c(-c4cnn(C5CCC(C(=O)N6CC(Nc7cccc8c7C(=O)N(C7CCC(=O)NC7=O)C8=O)C6)CC5)c4)cnc(N)c23)ccc1NS(=O)(=O)C(F)F)c1ccc(F)cc1 (stereo partly drawn) [Compound 1133, N-[4-(4-amino-7-{1-[4-(3-{[2-(2,6-dioxopiperidin-3-yl)-1,3-dioxo-2,3-dihydro-1H-isoindol-4-yl]amino}azetidine-1-carbonyl)cyclohexyl]-1H-pyrazol-4-yl}-1-methyl-1H-pyrazolo[4,3-c]pyridin-3-yl}-2-[(1S)-1-(4-fluorophenyl)ethoxy]phenyl]-1,1-difluoromethanesulfonamide]
pIC50 [1]: 5.00 to 6.00 | pKd (human MLKL (full length)): 6.00 to 8.00 | DC50 (endogenous MLKL in MDF): < 1000 nM
